PubChem BioAssay AID1159565 (GlaxoSmithKline (GSK), 2015)
Active and inactive are the calls of the source. No rule for the calls is given here.

System: T. cruzi-infected H9C2 cardiomyocytes, high-content imaging
Experiment: intracellular T. cruzi amastigote inhibition, imaging, H9C2 host cardiomyocytes, host toxicity (AID 1159565);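 also: infected cells incubated 72 h after plating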
[1] = measured here: H9C2 host cell toxicity
[2] = measured here: amastigotes per cell

SMILES: Cn1nc([N+](=O)[O-])nc1Oc1ccc(C(=O)c2ccccc2)cc1
- IC50: 0.32 µM
- IC50 [1]: > 50 µM
- IC50 [2]: 0.13 µM

SMILES: COc1cc(NC(=O)Nc2cccc(CNC(=O)OC3CCCCC3)c2)ccc1-c1cnco1
- IC50: 25 µM
- IC50 [1]: 16 µM
- IC50 [2]: 32 µM

SMILES: COc1ccc(C2CC(c3ccc(NS(C)(=O)=O)cc3)=NN2C(=O)c2cccs2)cc1OC (stereo not drawn)
- IC50: 32 µM
- IC50 [1]: > 50 µM
- IC50 [2]: 16 µM

SMILES: Cc1cc(N(C)C)nc(Nc2ccccc2C)n1
- IC50: 0.79 µM
- IC50 [1]: > 50 µM
- IC50 [2]: 0.5 µM

SMILES: CCC(=O)N1N=C(c2ccc3c(c2)CCCC3)Sc2c1ncn2C(=O)CC
- IC50: 20 µM
- IC50 [1]: > 50 µM
- IC50 [2]: 13 µM

SMILES: Clc1ccc(OCCN2CCCCC2c2cccnc2)c(Cl)c1 (stereo not drawn)
- IC50: 0.2 µM
- IC50 [1]: > 50 µM
- IC50 [2]: 0.16 µM

SMILES: COc1ccc2nccc(NC(=O)C3(OC)CCN(CC(O)c4ccc5c(c4)OCCO5)CC3)c2n1 (stereo not drawn)
- IC50: 0.32 µM
- IC50 [1]: 16 µM
- IC50 [2]: 0.13 µM

SMILES: COCCn1cnc2cc(NC(=O)C3CCCCC3)cc(C(=O)N3CCc4sccc4C3)c21
- IC50: 32 µM
- IC50 [1]: > 50 µM
- IC50 [2]: 20 µM

SMILES: CCC(CC)C(=O)Nc1ccc(-c2nnc(-c3ccc(OC)cc3)o2)cc1
- IC50: 13 µM
- IC50 [1]: > 50 µM
- IC50 [2]: 4 µM

SMILES: Cc1ccc(C)c(OC2CCN(C(=O)C(C)n3ccnc3)CC2)c1 (stereo not drawn)
- IC50: 0.4 µM
- IC50 [1]: > 50 µM
- IC50 [2]: 0.32 µM

SMILES: Cc1cc2cncn2c(C2CCCCN2C(=O)c2cccs2)n1 (stereo not drawn)
- IC50: 0.063 µM
- IC50 [1]: > 50 µM
- IC50 [2]: 0.063 µM

SMILES: CC(=O)Nc1ccc(-c2noc(CC3CCCN(Cc4cccc(F)c4C)C3)n2)cc1 (stereo not drawn)
- IC50: 2 µM
- IC50 [1]: 32 µM
- IC50 [2]: 1.3 µM

SMILES: N#Cc1nc(C=Cc2ccccc2)oc1NCc1cccnc1
- IC50: 0.4 µM
- IC50 [1]: 16 µM
- IC50 [2]: 0.4 µM

SMILES: CNC(=O)C1Cc2ccccc2N1C(=O)Cc1ccccc1 (stereo not drawn)
- IC50: > 50 µM (inactive)
- IC50 [1]: > 50 µM
- IC50 [2]: > 50 µM

SMILES: c1ccc(Nc2nc3ccccc3[nH]2)nc1
- IC50: 25 µM
- IC50 [1]: 10 µM
- IC50 [2]: 10 µM

SMILES: COc1cc(OC)cc(C(=O)N[C@@H](CC(C)C)C(=O)NC2(C#N)CC2)c1
- IC50: > 50 µM (inactive)
- IC50 [1]: > 50 µM
- IC50 [2]: > 50 µM

SMILES: CC(C)N(C(=O)CN1C(=O)C(N)C(=O)N(c2ccccc2)c2ccccc21)c1ccccc1 (stereo not drawn)
- IC50: 0.32 µM
- IC50 [1]: > 50 µM
- IC50 [2]: 0.4 µM

SMILES: COc1ccc2ncc(Cl)c(CCN3CC[C@H](NCc4cc5c(cn4)OCS5)[C@@H](O)C3)c2n1
- IC50: 0.16 µM
- IC50 [1]: 10 µM
- IC50 [2]: 0.1 µM

SMILES: O=C(Nc1nccs1)c1ccccc1Cn1cc([N+](=O)[O-])cn1
- IC50: > 50 µM (inactive)
- IC50 [1]: > 50 µM
- IC50 [2]: > 50 µM

SMILES: COc1cccc(CCNC(=O)C(c2cn[nH]c2)N2CCN(c3ccc(Cl)cc3)CC2)c1 (stereo not drawn)
- IC50: 0.02 µM
- IC50 [1]: 40 µM
- IC50 [2]: 0.016 µM

SMILES: CCN(CC)c1ncc(C(=O)c2ccc([N+](=O)[O-])o2)s1
- IC50: 13 µM
- IC50 [1]: 5 µM
- IC50 [2]: 7.9 µM

SMILES: CN(C)S(=O)(=O)c1ccc(Cl)c(C(=O)Nc2nc(-c3ccccn3)cs2)c1
- IC50: 2 µM
- IC50 [1]: 6.3 µM
- IC50 [2]: 1.3 µM

SMILES: Fc1ccc(Nc2nc(-c3ccccn3)cs2)cc1
- IC50: 5 µM
- IC50 [1]: 1 µM
- IC50 [2]: 5 µM

SMILES: CN1CCN(c2nc(-c3ccc(Cl)cc3)c3c(N)n(C)nc3n2)CC1
- IC50: 1 µM
- IC50 [1]: 25 µM
- IC50 [2]: 0.79 µM

SMILES: Cn1ccnc1-c1nc(NCc2ccccc2Cl)cc(C2CC2)n1
- IC50: 0.79 µM
- IC50 [1]: 0.63 µM
- IC50 [2]: 0.79 µM

SMILES: O=C(NCCc1ccccc1Cl)c1cccn1-c1cccnc1
- IC50: 0.5 µM
- IC50 [1]: > 50 µM
- IC50 [2]: 0.5 µM
